Laboratory results as given in PubChem BioAssay AID248 (DTP/NCI, 2004).
Where “and” joins values, the source holds several entries; their conditions need not be identical. Equal entries are not always repeated. Inconclusive results and toxic doses are left out. Rule as the data show it: active = T/C of 150% or more; inactive = T/C below 125%.

Test system: L1210 leukemia ip in BDF1 mice, survival T/C
Experiment: NCI In Vivo Anticancer Drug Screen. Data for tumor model L1210 Leukemia (intraperitoneal) in B6D2F1 (BDF1) mice
Conditions: endpoint: mean survival time, higher = longer survival
Summary of the method: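 Value reflects the ratio of survival in compound-treated mice to survival in vehicle-treated controls, with both groups carrying the same transplanted tumor.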

[1] = dose: 100.0 mg/kg/injection, schedule: Q01DX009 (ip), vehicle: other
[2] = dose: 100.0 mg/kg/injection, schedule: Q04DX003 (ip), vehicle: other
[3] = dose: 200.0 mg/kg/injection, schedule: Q04DX003 (ip), vehicle: other
[4] = dose: 400.0 mg/kg/injection, schedule: Q04DX003 (ip), vehicle: other
[5] = dose: 100.0 mg/kg/injection, schedule: Q04DX003 (ip), vehicle: saline with Tween-80
[6] = dose: 200.0 mg/kg/injection, schedule: Q04DX003 (ip), vehicle: saline with Tween-80
[7] = dose: 100.0 mg/kg/injection, schedule: Q01DX009 (ip), vehicle: saline
[8] = dose: 200.0 mg/kg/injection, schedule: Q01DX009 (ip), vehicle: saline
[9] = dose: 100.0 mg/kg/injection, schedule: Q04DX003 (ip), vehicle: saline
[10] = dose: 200.0 mg/kg/injection, schedule: Q04DX003 (ip), vehicle: saline
[11] = dose: 400.0 mg/kg/injection, schedule: Q04DX003 (ip), vehicle: saline
[12] = dose: 100.0 mg/kg/injection, schedule: Q04DX002 (ip), vehicle: Klucel (hydroxypropylcellulose) (HPC)
[13] = dose: 200.0 mg/kg/injection, schedule: Q04DX002 (ip), vehicle: Klucel (hydroxypropylcellulose) (HPC)
[14] = dose: 400.0 mg/kg/injection, schedule: Q04DX002 (ip), vehicle: Klucel (hydroxypropylcellulose) (HPC)
[15] = dose: 100.0 mg/kg/injection, schedule: Q01DX009 (ip), vehicle: Klucel (hydroxypropylcellulose) (HPC)
[16] = dose: 200.0 mg/kg/injection, schedule: Q01DX009 (ip), vehicle: Klucel (hydroxypropylcellulose) (HPC)
[17] = dose: 400.0 mg/kg/injection, schedule: Q01DX009 (ip), vehicle: Klucel (hydroxypropylcellulose) (HPC)
[18] = dose: 100.0 mg/kg/injection, schedule: Q01DX001 (ip), vehicle: carboxymethylcellulose (CMC)
[19] = dose: 400.0 mg/kg/injection, schedule: Q01DX001 (ip), vehicle: carboxymethylcellulose (CMC)
[20] = dose: 100.0 mg/kg/injection, schedule: Q04DX002 (ip), vehicle: saline with Tween-80
[21] = dose: 200.0 mg/kg/injection, schedule: Q04DX002 (ip), vehicle: saline with Tween-80
[22] = dose: 400.0 mg/kg/injection, schedule: Q04DX002 (ip), vehicle: saline with Tween-80

Measured: T/C

O=[N+]([O-])c1ccc(F)c(Cl)c1
inactive: [1] 98 % of control | [2] 105 % of control | [3] 100 % of control | [4] 90 % of control

S=C(Nc1ccc(Cl)c(Cl)c1)SCc1ccccc1
inactive: dose: 75.0 mg/kg/injection, schedule: Q04DX003 (ip), vehicle: saline 101 % of control | dose: 150.0 mg/kg/injection, schedule: Q04DX003 (ip), vehicle: saline 104 % of control | dose: 300.0 mg/kg/injection, schedule: Q04DX003 (ip), vehicle: saline 101 % of control

CCOC(=O)CC/C(=C/c1cccc2ccccc12)[N+](=O)[O-]
inactive: [5] 105 % of control | [6] 94 % of control

CC(C)C1=CC23CCC4C(C)(C(=O)O)CCCC4(C)C2CC1C1(Cl)C(Cl)=C(Cl)C(Cl)(Cl)C31Cl (configuration not stated)
inactive: dose: 75.0 mg/kg/injection, schedule: Q01DX001 (ip), vehicle: other 89 % of control | dose: 150.0 mg/kg/injection, schedule: Q01DX001 (ip), vehicle: other 89 % of control

COC1(OC)C2CCC1C(O)C2 (configuration not stated)
inactive: [7] 104 % of control | [8] 105 % of control

CC(C)CC(NC(=O)C(C)NC(=O)OCc1ccccc1)C(=O)NC(CC(C)C)C(=O)NCC(=O)NC1CCC2(C)C(CCC3C2CCC2(C)C(NC(=O)CNC(=O)C(CC(C)C)NC(=O)C(CC(C)C)NC(=O)C(C)NC(=O)OCc4ccccc4)CCC32)C1 (configuration not stated)
inactive: dose: 100.0 mg/kg/injection, schedule: Q01DX009 (sc), vehicle: steriod suspending solution 89 % of control | dose: 100.0 mg/kg/injection, schedule: Q04DX003 (sc), vehicle: steriod suspending solution 89 % of control | dose: 200.0 mg/kg/injection, schedule: Q01DX009 (sc), vehicle: steriod suspending solution 89 % of control | dose: 200.0 mg/kg/injection, schedule: Q04DX003 (sc), vehicle: steriod suspending solution 103 % of control | dose: 400.0 mg/kg/injection, schedule: Q01DX009 (sc), vehicle: steriod suspending solution 94 % of control | dose: 400.0 mg/kg/injection, schedule: Q04DX003 (sc), vehicle: steriod suspending solution 92 % of control

C=CC[N+](C)([O-])c1ccc(C(=O)OC)cc1 (configuration not stated)
inactive: dose: 100.0 mg/kg/injection, schedule: Q01DX001 (ip), vehicle: saline 107 % of control | dose: 200.0 mg/kg/injection, schedule: Q01DX001 (ip), vehicle: saline 102 % of control | dose: 400.0 mg/kg/injection, schedule: Q01DX001 (ip), vehicle: saline 96 % of control

COc1cc(OC)c(/C=C/c2cc3c4ccccc4ccc3[n+](C)c2)c(OC)c1
inactive: dose: 6.25 mg/kg/injection, schedule: Q01DX001 (ip), vehicle: saline with Tween-80 104 % of control | dose: 12.5 mg/kg/injection, schedule: Q01DX001 (ip), vehicle: saline with Tween-80 107 % of control

CCOC(=O)CNC(=O)C1CSC(C)(C)N1C=O (configuration not stated)
inactive: [9] 101 % of control | [10] 94 % of control | [11] 101 % of control

O=C1OC(c2cccc(Cl)c2)=N/C1=C\c1ccc(Cl)cc1
inactive: [12] 100 % of control | [13] 92 % of control | [14] 92 % of control

CCCNC(=O)Nc1ccc(Nc2ccccc2)cc1
inactive: [15] 105 % of control | [16] 103 % of control | [17] 94 % of control

CC1=C2CCCC3(OCCO3)C2(C)CCC1=O (configuration not stated)
inactive: dose: 100.0 mg/kg/injection, schedule: Q04DX002 (ip), vehicle: other 98 % of control | dose: 200.0 mg/kg/injection, schedule: Q04DX002 (ip), vehicle: other 109 % of control | dose: 400.0 mg/kg/injection, schedule: Q04DX002 (ip), vehicle: other 102 % of control

COC1(OC)C2(Cl)C=C(c3ccccc3)C1(Cl)C(Cl)=C2Cl (configuration not stated)
inactive: [18] 92 % of control | dose: 200.0 mg/kg/injection, schedule: Q01DX001 (ip), vehicle: carboxymethylcellulose (CMC) 97 % of control | [19] 94 % of control

CC(=O)N(c1ccncc1)c1ccc([N+](=O)[O-])cc1
inactive: dose: 50.0 mg/kg/injection, schedule: Q01DX009 (ip), vehicle: saline with Tween-80 94 % of control | dose: 100.0 mg/kg/injection, schedule: Q01DX009 (ip), vehicle: saline with Tween-80 97 % of control and 107 % of control | [20] 105 % of control and 108 % of control | [5] 98 % of control | dose: 200.0 mg/kg/injection, schedule: Q01DX009 (ip), vehicle: saline with Tween-80 94 % of control and 110 % of control | [21] 105 % of control and 109 % of control | [6] 98 % of control | [22] 92 % of control | dose: 400.0 mg/kg/injection, schedule: Q04DX003 (ip), vehicle: saline with Tween-80 104 % of control

NC(N)=N/N=C(/c1ccccc1)c1ccc2ccccc2c1
inactive: dose: 60.0 mg/kg/injection, schedule: Q01DX Z (oral), vehicle: methylcellulose (MC) 95 % of control | dose: 120.0 mg/kg/injection, schedule: Q01DX Z (oral), vehicle: methylcellulose (MC) 108 % of control | dose: 240.0 mg/kg/injection, schedule: Q01DX Z (oral), vehicle: methylcellulose (MC) 111 % of control | dose: 480.0 mg/kg/injection, schedule: Q01DX Z (oral), vehicle: methylcellulose (MC) 101 % of control | dose: 720.0 mg/kg/injection, schedule: Q01DX Z (oral), vehicle: methylcellulose (MC) 98 % of control | dose: 840.0 mg/kg/injection, schedule: Q01DX Z (oral), vehicle: methylcellulose (MC) 112 % of control

COc1ccc(/C=C(/c2ccccc2)[N+](=O)[O-])cc1
inactive: dose: 176.0 mg/kg/injection, schedule: Q01DX001 (ip), vehicle: carboxymethylcellulose (CMC) 102 % of control | dose: 264.0 mg/kg/injection, schedule: Q01DX001 (ip), vehicle: carboxymethylcellulose (CMC) 89 % of control | [19] 89 % of control | dose: 600.0 mg/kg/injection, schedule: Q01DX001 (ip), vehicle: carboxymethylcellulose (CMC) 89 % of control

OCC1OC(OC2C(CO)OCC(O)C2O)C(O)C(O)C1O (configuration not stated)
inactive: [20] 100 % of control | [21] 100 % of control | [22] 88 % of control

Nc1ncnc2cc(O)[nH]c12
inactive: dose: 50.0 mg/kg/injection, schedule: Q01DX001 (ip), vehicle: carboxymethylcellulose (CMC) 107 % of control | [18] 104 % of control

CS(=O)(=O)N(CC(=O)O)Cc1ccc(F)cc1
inactive: [1] 103 % of control | [2] 98 % of control | dose: 200.0 mg/kg/injection, schedule: Q01DX009 (ip), vehicle: other 102 % of control | [3] 104 % of control | dose: 400.0 mg/kg/injection, schedule: Q01DX009 (ip), vehicle: other 97 % of control | [4] 94 % of control

O=C(Nc1ccc(F)cc1)Oc1ccccn1
inactive: dose: 100.0 mg/kg/injection, schedule: Q01DX001 (ip), vehicle: Klucel (hydroxypropylcellulose) (HPC) 101 % of control | [15] 95 % of control | [12] 94 % of control and 100 % of control | dose: 100.0 mg/kg/injection, schedule: Q04DX003 (ip), vehicle: Klucel (hydroxypropylcellulose) (HPC) 101 % of control | dose: 200.0 mg/kg/injection, schedule: Q01DX001 (ip), vehicle: Klucel (hydroxypropylcellulose) (HPC) 104 % of control | [16] 101 % of control and 87 % of control | [13] 94 % of control and 97 % of control | dose: 200.0 mg/kg/injection, schedule: Q04DX003 (ip), vehicle: Klucel (hydroxypropylcellulose) (HPC) 103 % of control | dose: 400.0 mg/kg/injection, schedule: Q01DX001 (ip), vehicle: Klucel (hydroxypropylcellulose) (HPC) 93 % of control | [17] 95 % of control and 96 % of control | [14] 94 % of control and 97 % of control | dose: 400.0 mg/kg/injection, schedule: Q04DX003 (ip), vehicle: Klucel (hydroxypropylcellulose) (HPC) 105 % of control

COC(=O)c1cc([N+](=O)[O-])ccc1Cl
inactive: [7] 87 % of control | [9] 98 % of control | [8] 95 % of control | [10] 97 % of control | dose: 400.0 mg/kg/injection, schedule: Q01DX009 (ip), vehicle: saline 101 % of control | [11] 95 % of control
